Earlier results on 23 molecules are cited in patent US20230081296A1, “STABLE NON-AQUEOUS COMPOSITIONS OF PLANTS EXTRACTS AND METHODS OF MAKING THE SAME” (Nulixir Inc., priority 2021, published 2023).

As usually defined, the logP is a log measure of how a compound divides between an organic and an aqueous phase.

The conditions of the data set: reference phases water and n-octanol; categorization assumed at pH = 7 unless stated otherwise.
Regarding `COC1=CC(=O)OC(/C=C/c2ccc(OC)cc2)C1` (centres unmarked) [5,6-dihydroyangonin], the logP is given as approximately 2.5.

With `COc1cc(/C=C\c2ccc(OC)c(O)c2)oc(=O)c1` [11-hydroxyyangonin], the lipophilicity (logP) is recorded as approximately 2.2.

With `CC1=C(CO)C(=O)O[C@@H]([C@@H](C)[C@H]2CC[C@H]3[C@@H]4C[C@H](Cl)[C@]5(O)[C@@H](O)C=CC(=O)[C@]5(C)[C@H]4CC[C@]23C)C1` [6a-chloro-5b-hydroxywithaferin A], the logP is on record as approximately 3.2.

In the case of herinacine A, the logP was approximately 2.5.

In the case of `COc1cc2c(c(OC)c1OC)-c1c(cc(OC)c(OC)c1OC)C[C@H](C)[C@H](C)C2` [(-)-schisandrin A], the logP is reported as approximately 3.6.

For (-)-schisandrin C, the logP was approximately 3.5.

For the molecule `CC(=O)OC1C=CC(=O)N(C(=O)CCc2ccccc2)C1` (centres unmarked) [pipermethystine], the logP is approximately 1.8.

For the molecule (R)-kawain, the logP was approximately 2.7.

Turning to `COc1cc(/C=C/c2ccccc2)oc(=O)c1` [5,6-dehydrokawain], the logP is approximately 2.9.

As for hericerin, the logP was approximately 6.4.

`COc1ccc(CCc2cc(OC)cc(=O)o2)cc1` [7,8-dihydroyangonin]: the logP is reported as approximately 2.9.

As for tortuosomine, the log partition coefficient (logP) was approximately 3.

For the molecule `CC(/C=C/C=C(\C)C(=O)O[C@@H]1O[C@H](CO[C@@H]2O[C@H](CO)[C@@H](O)[C@H](O)[C@H]2O)[C@@H](O)[C@H](O)[C@H]1O)=C\C=C\C=C(C)\C=C\C=C(/C)C(=O)O[C@@H]1O[C@H](CO[C@@H]2O[C@H](CO)[C@@H](O)[C@H](O)[C@H]2O)[C@@H](O)[C@H](O)[C@H]1O` [alpha -crocin], the logP is listed as approximately -1.5.

As for bacopaside B, the logP is on record as approximately 2.8.

On to `COc1nc2c(c(=O)n1C)n(C)c(=O)n2C` [methylliberine], for which the logP was approximately -0.083.

Consider `COc1cc2c(c(OC)c1OC)-c1c(cc3c(c1OC)OCO3)CC(C)C(C)C2` (single isomer, unassigned; (-)) [(-)-schisandrin B], for which the logP was approximately 4.

For the molecule `COc1cc2c(c(OC)c1OC)-c1c(cc(OC)c(OC)c1OC)C[C@](C)(O)[C@@H](C)C2` [(+)-schisandrin], the logP is given as approximately 5.

For schisandroside C, the logP is reported as approximately 1.6.

In the case of `N#C[C@@]1(O[C@@H]2O[C@H](CO)[C@@H](O)[C@H](O)[C@H]2O)C=C[C@@H](O)C1` [tetraphyllin B], the logP is listed as approximately -2.5.

`COc1cc([C@H]2Oc3cc(O)c4c(=O)c(O)c(-c5ccc(O)cc5)oc4c3O[C@@H]2CO)ccc1O` [rhodiolin]: the logP is recorded as approximately 2.

As to `COC1=CC(=O)O[C@@H](CCc2ccc3c(c2)OCO3)C1` [7,8-dihydromethysticin], the logP is approximately 2.2.

With `COc1ccc([C@@]23CCC(=O)C[C@@H]2N(C)CC3)cc1OC` [mesembrine], the logP is listed as approximately 1.5.

With `COc1cc2c(c(OC)c1OC)-c1c(cc(OC)c(OC)c1OC)C[C@](C)(O)[C@@H](C)C2` [schisandrol A], the logP is listed as approximately 3.4.
